For one test, the target named is USP9X (Homo sapiens (Human), UniProt Q93008). In words: USP9X enzyme activity assay, ubiquitin-rhodamine110 substrate. The following applies: Table 8.
USP9X, sequence (Q93008 whole entry): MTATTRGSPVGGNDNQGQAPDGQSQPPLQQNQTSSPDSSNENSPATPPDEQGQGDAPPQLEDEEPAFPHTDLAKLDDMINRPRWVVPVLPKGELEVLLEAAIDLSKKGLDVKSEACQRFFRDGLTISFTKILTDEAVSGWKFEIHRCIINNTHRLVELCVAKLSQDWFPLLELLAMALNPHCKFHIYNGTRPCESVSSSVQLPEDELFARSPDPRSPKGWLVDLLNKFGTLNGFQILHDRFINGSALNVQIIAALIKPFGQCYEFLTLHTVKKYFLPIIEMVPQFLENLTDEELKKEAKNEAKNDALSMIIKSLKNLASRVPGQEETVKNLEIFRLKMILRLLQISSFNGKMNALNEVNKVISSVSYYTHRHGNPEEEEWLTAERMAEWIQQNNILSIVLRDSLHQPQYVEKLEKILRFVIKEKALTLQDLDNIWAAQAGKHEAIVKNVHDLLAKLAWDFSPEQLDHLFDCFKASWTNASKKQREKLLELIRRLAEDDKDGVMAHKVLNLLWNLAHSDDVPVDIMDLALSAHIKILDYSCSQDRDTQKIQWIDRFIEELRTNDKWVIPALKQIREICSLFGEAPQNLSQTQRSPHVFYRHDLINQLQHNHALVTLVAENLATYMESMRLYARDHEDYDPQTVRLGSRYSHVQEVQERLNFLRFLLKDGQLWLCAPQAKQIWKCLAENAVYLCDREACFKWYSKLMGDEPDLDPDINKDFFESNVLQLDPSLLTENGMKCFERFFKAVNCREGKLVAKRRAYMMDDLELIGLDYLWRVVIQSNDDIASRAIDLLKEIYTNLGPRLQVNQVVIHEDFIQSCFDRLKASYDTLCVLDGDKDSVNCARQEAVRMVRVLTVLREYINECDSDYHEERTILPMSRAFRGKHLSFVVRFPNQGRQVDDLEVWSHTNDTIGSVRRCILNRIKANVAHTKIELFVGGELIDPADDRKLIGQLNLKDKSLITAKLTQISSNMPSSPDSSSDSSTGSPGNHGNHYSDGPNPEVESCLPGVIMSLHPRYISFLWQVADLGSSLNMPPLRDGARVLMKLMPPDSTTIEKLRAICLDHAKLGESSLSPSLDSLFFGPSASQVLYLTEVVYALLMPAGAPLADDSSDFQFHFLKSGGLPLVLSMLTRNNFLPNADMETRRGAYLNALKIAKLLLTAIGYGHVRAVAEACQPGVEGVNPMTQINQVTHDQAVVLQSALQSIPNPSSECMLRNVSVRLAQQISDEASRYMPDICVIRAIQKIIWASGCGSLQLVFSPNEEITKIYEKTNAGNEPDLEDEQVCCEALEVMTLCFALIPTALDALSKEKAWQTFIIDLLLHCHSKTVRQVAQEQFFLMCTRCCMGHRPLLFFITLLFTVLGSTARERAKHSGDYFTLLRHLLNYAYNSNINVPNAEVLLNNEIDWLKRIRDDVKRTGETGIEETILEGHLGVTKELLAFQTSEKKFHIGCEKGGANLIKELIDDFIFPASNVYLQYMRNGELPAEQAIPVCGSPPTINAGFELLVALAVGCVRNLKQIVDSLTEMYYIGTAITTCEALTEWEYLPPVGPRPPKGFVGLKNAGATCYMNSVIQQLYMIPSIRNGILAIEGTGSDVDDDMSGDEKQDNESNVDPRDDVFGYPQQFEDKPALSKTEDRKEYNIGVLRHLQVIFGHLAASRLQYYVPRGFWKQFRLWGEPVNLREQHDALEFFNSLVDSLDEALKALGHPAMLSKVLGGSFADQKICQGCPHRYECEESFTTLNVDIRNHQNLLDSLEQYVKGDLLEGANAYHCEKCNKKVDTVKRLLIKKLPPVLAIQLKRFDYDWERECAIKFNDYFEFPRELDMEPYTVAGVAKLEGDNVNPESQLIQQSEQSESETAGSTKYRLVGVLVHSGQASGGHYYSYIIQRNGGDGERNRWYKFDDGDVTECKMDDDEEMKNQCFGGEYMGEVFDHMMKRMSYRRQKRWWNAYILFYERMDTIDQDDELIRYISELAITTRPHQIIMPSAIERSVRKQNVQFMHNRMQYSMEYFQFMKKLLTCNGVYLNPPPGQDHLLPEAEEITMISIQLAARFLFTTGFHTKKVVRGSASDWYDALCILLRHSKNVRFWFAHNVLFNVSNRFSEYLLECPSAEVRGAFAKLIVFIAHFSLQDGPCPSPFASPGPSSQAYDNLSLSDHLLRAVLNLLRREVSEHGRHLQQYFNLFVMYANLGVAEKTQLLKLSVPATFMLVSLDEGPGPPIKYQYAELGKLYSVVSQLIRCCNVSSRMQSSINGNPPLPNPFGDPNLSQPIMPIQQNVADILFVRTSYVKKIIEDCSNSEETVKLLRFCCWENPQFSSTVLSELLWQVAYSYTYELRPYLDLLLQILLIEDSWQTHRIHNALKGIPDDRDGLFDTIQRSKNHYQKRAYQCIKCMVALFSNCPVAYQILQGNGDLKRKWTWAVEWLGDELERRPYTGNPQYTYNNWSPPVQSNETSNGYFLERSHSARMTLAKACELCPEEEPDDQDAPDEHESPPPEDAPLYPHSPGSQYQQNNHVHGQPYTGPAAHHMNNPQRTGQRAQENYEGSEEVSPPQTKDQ
Description: The inhibition property of compound Compound 1A was evaluated in assays measuring the ability of USP9X to catalyze the hydrolysis of the amide bond between the C terminal carboxylate of ubiquitin and rhodamine110 of the fluorogenic substrate ubiquitin-rhodamine 110. To the wells of a 96 well reaction plate was added 12.5 μL USP9X solution (1.3 nM) in assay buffer (100 mM NaCl, 1 mM DTT, 0.1% bovine serum albumin, 0.05% Tween 20, 50 mM Tris, pH 7.5). 12.5 μL of Compound 1A in assay buffer (4×final concentration) was added to the wells containing the USP9X solution, and the solution was gently mixed by pipetting up and down several times. The plate was sealed and incubated at room temperature for 20 minutes.
Then 25 μL of the 1 μM substrate (ubiquitin-rhodaminel10) solution was added in assay buffer. The final substrate concentration was 0.5 μM. […] The slope for the rate of change of the fluorescence was determined and plotted vs the concentration of Compound 1A.
USP9X enzyme assays were set up in a 96 well plate to assess the abilities of Compound 3A and Compound 4A to inhibit the activity of USP9X, respectively. Ubiquitin-rhodamine110 was used as the substrate and ubiquitin aldehyde was included in the assay as a positive control.
Purified recombinant USPx9 (R&D Systems) in 50 mM Tris buffer pH 7.5, 1 mM DTT, 100 mM NaCl, 0.05% Tween 20 and 0/1% BSA is used at a concentration of 0.325 nM with 0.5 μM ubiquitin-rhodamine (R&D Systems).
`CN(C)CCOc1ccc(C(=O)NCc2cccc(C(=O)N[C@@H](CC(C)(C)C)C(=O)N(C)Cc3ccccc3)c2)cc1` [Compound 26]: the “USP9X IC50/UM” value is given as >50 UM.
On the same count and under the same terms, the figure for `CN(C)CCOc1ccc(C(=O)NCc2cccc(C(=O)N[C@@H](CC(C)(C)C)C(=O)NCc3ccccc3F)c2)cc1` [Compound 27] is >50 UM.
For `CNCCOc1ccc(C(=O)NCc2cccc(C(=O)N[C@@H](CC(C)(C)C)C(=O)Nc3ccc(CCC(=O)O)cc3)c2)cc1` [Compound 30], the “USP9X IC50/UM” value was >50 UM.
As for `CNCCOc1ccc(C(=O)NCc2cccc(C(=O)N[C@@H](CC(C)C)C(=O)Nc3ccc(CCC(=O)O)cc3)c2)cc1` [Compound 32], the “USP9X IC50/UM” value was >50 UM.
In the case of `CNCCOc1ccc(C(=O)NCc2cccc(C(=O)N[C@@H](C)C(=O)Nc3ccc(CCC(=O)O)cc3)c2)cc1` [Compound 33], the “USP9X IC50/UM” value is reported as >50 UM.
Turning to `CNCCOc1ccc(C(=O)NCc2cccc(C(=O)N3CCCC3C(=O)Nc3ccc(CCC(=O)O)cc3)c2)cc1` (stereo not shown) [Compound 36], the “USP9X IC50/UM” value is listed as >50 UM.
Turning to `CNCCOc1ccc(C(=O)NCc2cccc(C(=O)N[C@@H](CC3CCCCC3)C(=O)Nc3ccc(CCC(=O)O)cc3)c2)cc1` [Compound 37], the “USP9X IC50/UM” value was >50 UM.
The same measure, in the same setting: the figure for `CC(C)(C)C[C@H](NC(=O)c1cccc(CNC(=O)c2ccc(OCCNC(=O)CC(C)(C)CC(=O)NCCc3ccc(N)cc3)cc2)c1)C(=O)O` [Compound 66] is >50 UM.

The same test, now with this note: higher concentrations of compound (>10 μM).
In the case of `COCCNC(=O)[C@@H]1Cc2ccc(cc2)NC(=O)[C@H](CC(C)(C)C)NC(=O)c2cccc(c2)CNC(=O)c2ccc(cc2)OCCNC(=O)CC(C)(C)CC(=O)N1` [Compound 3A], the “reduction of USP9X activity” value was “approximately 60%”.
On the same count and under the same terms, the result for `CC(C)(C)C[C@@H]1NC(=O)c2cccc(c2)CNC(=O)c2ccc(cc2)OCCNC(=O)CCCCC(=O)N[C@H](C(=O)O)Cc2ccc(cc2)NC1=O` [Compound 4A] reads “approximately 60%”.

Staying with this test, now noted: read-out: USP9X IC50/UM; Table 8.
On to `CNCCOc1ccc(C(=O)NCc2cccc(C(=O)N[C@@H](CC(C)(C)C)C(=O)Nc3ccc(CC(NC(=O)CC(C)(C)CC(=O)O)C(=O)OC)cc3)c2)cc1` (stereo partly shown) [Compound 1], for which the IC50 was found to be 0.53 µM.
On the same count and under the same terms, the figure for `CNCCOc1ccc(C(=O)NCc2cccc(C(=O)N[C@@H](CC(C)(C)C)C(=O)Nc3ccc(CCNC(=O)CC(C)(C)CC(=O)O)cc3)c2)cc1` [Compound 2] is 0.18 µM; for `CNCCOc1ccc(C(=O)NCc2cccc(C(=O)N[C@@H](CC(C)(C)C)C(=O)Nc3ccc(CCC(=O)O)cc3)c2)cc1` [Compound 3] it is 0.28 µM.
Same read-out and setting: the result for `CNCCOc1ccc(C(=O)NCc2cccc(C(=O)N[C@@H](CC(C)(C)C)C(=O)Nc3ccc(CN4CCCC4)cc3)c2)cc1` [Compound 4] reads 0.054 µM.
Turning to `CN(C)CCOc1ccc(C(=O)NCc2cccc(C(=O)N[C@@H](CC(C)(C)C)C(=O)Nc3ccc(CN4CCCC4)cc3)c2)cc1` [Compound 5], the IC50 is 0.055 µM.
Same read-out and setting: the figure for `CNCCOc1ccc(C(=O)NCc2cccc(C(=O)N[C@@H](CC(C)(C)C)C(=O)Nc3ccc(CCc4ccccn4)cc3)c2)cc1` [Compound 6] is 0.7 µM; for `CN(C)CCOc1ccc(C(=O)NCc2cccc(C(=O)N[C@@H](CC(C)(C)C)C(=O)Nc3ccc(CCc4ccccn4)cc3)c2)cc1` [Compound 7] it is 0.59 µM.
Still for that read-out and setting: the result for `CNCCOc1ccc(C(=O)NCc2cccc(C(=O)N[C@@H](CC(C)(C)C)C(=O)Nc3cccc(Cn4cccn4)c3)c2)cc1` [Compound 8] reads 1.1 µM; that for `CN(C)CCOc1ccc(C(=O)NCc2cccc(C(=O)N[C@@H](CC(C)(C)C)C(=O)Nc3cccc(Cn4cccn4)c3)c2)cc1` [Compound 9], 0.15 µM.
With `CNCCOc1ccc(C(=O)NCc2cccc(C(=O)N[C@@H](CC(C)(C)C)C(=O)Nc3ccc(Cn4ccnc4)cc3)c2)cc1` [Compound 10], the IC50 was 0.091 µM.
Still for that read-out and setting: the figure for `CN(C)CCOc1ccc(C(=O)NCc2cccc(C(=O)N[C@@H](CC(C)(C)C)C(=O)Nc3ccc(Cn4ccnc4)cc3)c2)cc1` [Compound 11] is 0.08 µM; for `CNCCOc1ccc(C(=O)NCc2cccc(C(=O)N[C@@H](CC(C)(C)C)C(=O)Nc3ccc(CC(F)(F)F)cc3)c2)cc1` [Compound 12] it is 1.3 µM.
On to `CN(C)CCOc1ccc(C(=O)NCc2cccc(C(=O)N[C@@H](CC(C)(C)C)C(=O)Nc3ccc(CCN(C)C)cc3)c2)cc1` [Compound 13], for which the IC50 was 0.044 µM.
As to `CN(C)CCOc1ccc(C(=O)NCc2cccc(C(=O)N[C@@H](CC(C)(C)C)C(=O)Nc3ccc(CCN4CCOCC4)cc3)c2)cc1` [Compound 14], the IC50 was 0.12 µM.
For `CN(C)CCNC(=O)[C@H](CC(C)(C)C)NC(=O)c1cccc(CNC(=O)c2ccc(OCCN(C)C)cc2)c1` [Compound 15], the IC50 amounted to 23 µM.
Same read-out and setting: the result for `CN(C)CCCNC(=O)[C@H](CC(C)(C)C)NC(=O)c1cccc(CNC(=O)c2ccc(OCCN(C)C)cc2)c1` [Compound 16] reads 18 µM; that for `CN(C)CCOc1ccc(C(=O)NCc2cccc(C(=O)N[C@@H](CC(C)(C)C)C(=O)NCCN3CCCC3)c2)cc1` [Compound 19], 8 µM; that for `CN(C)CCOc1ccc(C(=O)NCc2cccc(C(=O)N[C@@H](CC(C)(C)C)C(=O)Nc3ccc4nccn4c3)c2)cc1` [Compound 20], 0.063 µM.
For the compound `Cc1ccc(NC(=O)[C@H](CC(C)(C)C)NC(=O)c2cccc(CNC(=O)c3ccc(OCCN(C)C)cc3)c2)cc1` [Compound 22], the IC50 was found to be 0.42 µM.
On the same count and under the same terms, the figure for `COc1ccc(NC(=O)[C@H](CC(C)(C)C)NC(=O)c2cccc(CNC(=O)c3ccc(OCCN(C)C)cc3)c2)cc1` [Compound 23] is 0.24 µM.
With `COC(=O)c1cc(NC(=O)[C@H](CC(C)(C)C)NC(=O)c2cccc(CNC(=O)c3ccc(OCCN(C)C)cc3)c2)ccc1C` [Compound 24], the IC50 was 0.066 µM.
On the same count and under the same terms, the result for `COC(=O)c1cccc(NC(=O)[C@H](CC(C)(C)C)NC(=O)c2cccc(CNC(=O)c3ccc(OCCN(C)C)cc3)c2)c1` [Compound 25] reads 0.068 µM; that for `CN(C)CCOc1ccc(C(=O)NCc2cccc(C(=O)N[C@@H](CC(C)(C)C)C(=O)NCc3ccccn3)c2)cc1` [Compound 28], 32 µM; that for `CNCCOc1ccc(C(=O)NCc2cccc(C(=O)N[C@@H](CC(C)C)C(=O)Nc3ccc(CCC(=O)O)cc3)c2)cc1` [Compound 31], 6 µM.
Take `CNCCOc1ccc(C(=O)NCc2cccc(C(=O)N3CCCC3C(=O)Nc3ccc(CCC(=O)O)cc3)c2)cc1` (stereo not shown) [Compound 35]: the IC50 was 7 µM.
Turning to `CNC(=O)CCc1ccc(NC(=O)[C@H](CC(C)(C)C)NC(=O)c2cc(CNC(=O)c3ccc(OCCN(C)C)cc3)ccc2F)cc1` [Compound 41], the IC50 stood at 0.09 µM.
In the case of `CNC(=O)CCc1ccc(NC(=O)[C@H](CC(C)(C)C)NC(=O)c2cccc(CNC(=O)c3ccc(OC)cc3)c2)cc1` [Compound 42], the IC50 amounted to 1.3 µM.
In the case of `CNC(=O)CCc1ccc(NC(=O)[C@H](CC(C)(C)C)NC(=O)c2cc(CNC(=O)c3ccc(OC)cc3)ccc2F)cc1` [Compound 43], the IC50 turned out to be 0.76 µM.
Take `COc1ccc(C(=O)NCc2cccc(C(=O)N[C@@H](CC(C)(C)C)C(=O)Nc3ccc(CCN(C)C)cc3)c2)cc1` [Compound 44]: the IC50 was 0.24 µM.
The same measure, in the same setting: the figure for `CNC(=O)CCc1ccc(NC(=O)[C@H](CC(C)(C)C)NC(=O)c2cccc(CNC(=O)c3ccccc3)c2)cc1` [Compound 45] is 2.1 µM.
Take `CN(C)CCc1ccc(NC(=O)[C@H](CC(C)(C)C)NC(=O)c2cccc(CNC(=O)c3ccccc3)c2)cc1` [Compound 47]: the IC50 was 0.32 µM.
Same read-out and setting: the figure for `CNC(=O)CCc1ccc(NC(=O)[C@H](CC(C)(C)C)NC(=O)c2cccc(CNC(C)=O)c2)cc1` [Compound 48] is 8.9 µM; for `CNC(=O)CCc1ccc(NC(=O)[C@H](CC(C)(C)C)NC(=O)c2cc(CNC(C)=O)ccc2F)cc1` [Compound 49] it is 5 µM.
Same read-out and setting: the figure for `CC(=O)NCc1cccc(C(=O)N[C@@H](CC(C)(C)C)C(=O)Nc2ccc(CCN(C)C)cc2)c1` [Compound 50] is 2.3 µM.
Still for that read-out and setting: the figure for `CNCCOc1ccc(C(=O)NCc2ccc(F)c(C(=O)N[C@@H](CC(C)(C)C)C(=O)Nc3ccc(CCC(=O)O)cc3)c2)cc1` [Compound 53] is 0.36 µM; for `COc1ccc(C(=O)NCc2cccc(C(=O)N[C@@H](CC(C)(C)C)C(=O)Nc3ccc(CCC(=O)O)cc3)c2)cc1` [Compound 55] it is 4.7 µM; for `CC(C)(C)C[C@H](NC(=O)c1cccc(CNC(=O)c2ccccc2)c1)C(=O)Nc1ccc(CCC(=O)O)cc1` [Compound 57] it is 7 µM.
For the compound `CC(C)(C)C[C@H](NC(=O)c1cc(CNC(=O)c2ccccc2)ccc1F)C(=O)Nc1ccc(CCC(=O)O)cc1` [Compound 58], the IC50 turned out to be 4.9 µM.
On the same count and under the same terms, the figure for `CC(=O)NCc1ccc(F)c(C(=O)N[C@@H](CC(C)(C)C)C(=O)Nc2ccc(CCC(=O)O)cc2)c1` [Compound 60] is 13 µM; for `CC(C)(C)C[C@H](NC(=O)c1cccc(CNC(=O)c2ccc(OCCO)cc2)c1)C(=O)Nc1ccccc1` [Compound 61] it is 5.8 µM.
In the case of `Cc1ccc(NC(=O)[C@H](CC(C)(C)C)NC(=O)c2cccc(CNC(=O)c3ccc(OCCO)cc3)c2)cc1` [Compound 62], the IC50 is 6.9 µM.
Take `CC(C)(C)C[C@H](NC(=O)c1cccc(CNC(=O)c2ccc(OCCO)cc2)c1)C(=O)Nc1ccc(CCN)cc1` [Compound 63]: the IC50 stood at 0.22 µM.
In the case of `CC(=O)NCCc1ccc(NC(=O)[C@H](CC(C)(C)C)NC(=O)c2cccc(CNC(=O)c3ccc(OCCO)cc3)c2)cc1` [Compound 64], the IC50 amounted to 0.65 µM.
Regarding `CC(C)(C)CC(=O)NCCc1ccc(NC(=O)[C@H](CC(C)(C)C)NC(=O)c2cccc(CNC(=O)c3ccc(OCCO)cc3)c2)cc1` [Compound 65], the IC50 was 0.6 µM.

Still in this test, the particulars now being: ubiquitin-rhodamine110 substrate.
On to `CN1CCOc2ccc(cc2)C(=O)NCc2ccc(F)c(c2)C(=O)N[C@@H](CC(C)(C)C)C(=O)Nc2ccc(cc2)CCN(C)C(=O)CCC(C)(C)CCC1=O` [Compound 1A, (S)-5^4-fluoro-14,18,18,22-tetramethyl-S-neopentyl-25-oxa-3,7,10,14,22-pentaaza-1,11(1,4),5(1,3)-tribenzenacyclopentacosaphane-2,6,9,15,21-pentaone], for which the “effect on USP9X activity” value is listed as “partially inhibited”.

The values above are taken from patent US20240294467A1, “USP9X Inhibitors” (ProDeg, LLC, priority 2021, published 2024).
